Results: patent publication US20210015793A1, “COMPOUNDS FOR TREATING CNS- AND NEURODEGENERATIVE DISEASES” (ETH ZURICH, priority 2018, published 2021)

Columns and labels:
[1] = test system: rats subjected to the CUMS protocol; test: Immunoblot detection of hippocampal PHF-Tau (AT8) in aged rats subjected to CUMS; type: in vivo, rat; settings: 16 months-old rats, CUMS for 4 weeks, oral treatment 8 mg/kg/d
Experimental: As a model for reproducing major features of sporadic AD and depression, 15 months-old male rats were […] according to the CUMS protocol for 4 weeks. The following stimuli were administered each week in a random order: two periods (7 h and 17 h) of 45° cage tilt; soaked cage for 17 h; food deprivation (24 h) and water deprivation (12 h), twice a week; paired housing (17 h); overnight illumination during the dark phase, twice a week; noise (85 dB) in the room for 5 h, twice a week; flashing light (60 flashes/min) for 6 h, three times a week (AbdAlla et al., Biomed. Res. Int. 2015:917156 (2015); El-faramawy et al., Pharmacol. Biochem. Behav. 91, 339-344 (2009)). The sucrose preference test (2% sucrose in water) was done immediately after a period of food and water deprivation. […]
For immunoblot detection of PHF-Tau in the hippocampus of aged 16 month-old rats subjected to the CUMS protocol for 4 weeks, hippocampi were dissected out from isolated brains on ice, pulverized under liquid nitrogen, and proteins were extracted with guanidine-hydrochloride (6.25 M guanidine hydrochloride in 50 mM Tris, pH 8.0 supplemented with 1× protease inhibitors and 1× phosphatase inhibitors) for 30 min at 4° C. […] For quantitative analysis, quantitative immunoblot evaluation was performed. To control for equal protein loading, the total content of hippocampal Gnb was determined. […]

Tg2576 AD mice = test: Abeta plaque load by immunohistology (BAM-10) in Tg2576 mice; type: in vivo, mouse; settings: 18-month-old Tg2576 mice, 8 mg/kg/d in drinking water for 6 months, vs untreated Tg2576 controls
Description: For a genetic model of familial AD (FAD), Tg2576 mice (Taconic Biosciences, Rensselaer, N.Y., USA) were used with neuron-specific overexpression of human APPSwe, i.e the Swedish mutation of APP695 isolated from a Swedish family with FAD featuring the double mutation K670N/M671L (Hsiao et al., Science 274, 99-103 (1996)). As a genetic model of tauopathy, the Tg-TauP301L mice (Model 2508, Taconic Biosciences, Rensselaer, N.Y., USA) with neuron-specific expression of the most common FTDP-17 (frontotemporal dementia and parkinsonism linked to chromosome 17) mutation (Lewis et al., Nature Genetics 25, 402-405 (2000)) were used. To enhance neurodegeneration and neuronal loss, the CUMS (chronic unpredictable mild stress) protocol was performed with male 12 months-old Tg2576 mice for 3 months essentially as described (AbdAlla et al., J. Biol. Chem. 284, 6554-6565 (2009); AbdAlla et al., J. Biol. Chem. 284, 6566-6574 (2009)). […]
For Abeta plaque load quantification by immunohistochemistry, paraffin-embedded brain sections (or cryosections) (8 microm, 10-15 sections/brain taken at 30-50 microm intervals) were prepared from brains isolated from 18-month-old Tg2576 mice (Taconic Biosciences, Rensselaer, N.Y., USA) treated for six months without and with Compound-1 and Compound-4 (8 mg/kg body weight/day in drinking water). […]

In the case of O=C(C1=C(O)C(c2ccccc2)N(c2ccc3c(c2)OCO3)C1=O)C1CC1 (centres unmarked) [Compound-1, 1-(1,3-benzodioxol-5-yl)-4-(cyclopropane-carbonyl)-3-hydroxy-2-phenyl-2H-pyrrol-5-one], the “hippocampal PHF Tau hyperphosphorylation (immunoblot AT8)” value [1] is reported as “retard PHF Tau hyperphosphorylation” and the “Abeta plaque load in hippocampus and frontal cortex” value (Tg2576 AD mice) is reported as “significantly retarded the accumulation of Abeta plaques”.
